Target: T1, N-formyl peptide receptor 2 (Homo sapiens, UniProt P25090)
T1 sequence (P25090 whole entry): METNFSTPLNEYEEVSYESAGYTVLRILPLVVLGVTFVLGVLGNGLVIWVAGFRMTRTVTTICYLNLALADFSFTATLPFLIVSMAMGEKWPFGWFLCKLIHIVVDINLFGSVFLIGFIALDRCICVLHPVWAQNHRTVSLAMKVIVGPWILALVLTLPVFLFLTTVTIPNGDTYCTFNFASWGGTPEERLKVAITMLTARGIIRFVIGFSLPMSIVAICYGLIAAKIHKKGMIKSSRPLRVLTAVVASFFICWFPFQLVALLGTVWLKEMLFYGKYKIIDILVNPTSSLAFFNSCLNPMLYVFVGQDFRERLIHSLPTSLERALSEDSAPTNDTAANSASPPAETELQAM
Assay: hFPRL1-Mediated Ca2+ Mobilization Assay
Settings: pH 7.2; 37 °C
Experimental: hFPRL 1 activity was assayed using an aequorin-based bioluminescence assay (Ca2+ flux). EC50 values have been determined by Ca2+ flux in CHO recombinant cells co-expressing hFPRL1, G (alpha15) protein, and aequorin.

Question: Which EC50 does the source give for `COc1ccc2[nH]c(C(=O)N3CCC(n4c(=O)[nH]c5ccccc54)CC3)cc2c1` [1-{1-[(5-methoxy-1H-indol-2-yl)carbonyl]piperidin-4-yl}-1,3-dihydro-2H-benzimidazol-2-one] here?
Answer: Its EC50 is 6.39 µM.

— BindingDB's records for doi:10.1016/j.bmcl.2007.09.043 (Amgen, 2007)
